Measurements taken from ChEMBL document CHEMBL1133448, “Computational studies on HIV-1 protease inhibitors: influence of calculated inhibitor-enzyme binding affinities on the statistical quality of 3D-QSAR CoMFA models” (J Med Chem, 2000).

Molecular target: Human immunodeficiency virus type 1 protease (Human immunodeficiency virus 1, UniProt Q72874)
Assay: Inhibition of human immunodeficiency virus type 1 (HIV-1) protease enzyme.

IC50 | SMILES
2950 nM | CC(C)(C)OC(=O)N[C@@H](Cc1ccccc1)[C@@H](O)CCC(=O)NC1c2ccccc2C[C@@H]1O (stereo partly specified)
1.29 nM | CC(C)(C)OC(=O)N[C@@H](Cc1ccccc1)[C@@H](O)/C=C(/Cc1ccccc1)C(=O)NC1c2ccccc2C[C@@H]1O (stereo partly specified)
589 nM | CC(C)(C)OC(=O)N[C@@H](Cc1ccc(O)cc1)[C@@H](O)C1CCCC1C(=O)NCc1ccccc1 (stereo partly specified)
0.251 nM | CC(C)(C)OC(=O)NC(Cc1ccccc1)[C@@H](O)CC(CSc1ccccc1)C(=O)NC1c2ccccc2C[C@@H]1O (stereo partly specified)
9.55 nM | CC(C)(C)OC(=O)N[C@@H](Cc1ccccc1)[C@@H](O)C[C@@H](Cc1ccccc1)C(=O)NC1C=CC[C@@H]1O (stereo partly specified)
0.1 nM | CC(C)(C)OC(=O)N[C@@H](Cc1ccccc1)[C@@H](O)C[C@@H](Cc1ccccc1)C(=O)NC1c2ccccc2C(O)[C@@H]1O (stereo partly specified)
27.5 nM | C=CC[C@H](C[C@H](O)[C@H](Cc1ccccc1)NC(=O)OC(C)(C)C)C(=O)NC1c2ccccc2C[C@@H]1O (stereo partly specified)
66.1 nM | COC(=O)C1Cc2ccccc2C1NC(=O)[C@H](Cc1ccccc1)C[C@H](O)[C@H](Cc1ccccc1)NC(=O)OC(C)(C)C (stereo partly specified)
33.9 nM | CC(C)(C)OC(=O)N[C@@H](Cc1ccccc1)[C@@H](O)C[C@@H](Cc1ccccc1)C(=O)NC1CCc2ccccc21 (stereo partly specified)
562 nM | CC(C)(C)OC(=O)N[C@@H](Cc1ccccc1)[C@@H](O)CC(=O)NC1c2ccccc2C[C@@H]1O (stereo partly specified)
0.191 nM | CC(C)(C)OC(=O)N[C@@H](Cc1ccccc1)[C@@H](O)C[C@@H](CCCc1ccccc1)C(=O)NC1c2ccccc2C(O)[C@@H]1O (stereo partly specified)
0.692 nM | O=C(NC1c2ccccc2C[C@@H]1O)[C@H](Cc1ccccc1)CC(O)C[C@@H](Cc1ccccc1)C(=O)NC1c2ccccc2C[C@@H]1O (stereo partly specified)
0.603 nM | CC(C)(C)OC(=O)N[C@@H](Cc1ccccc1)[C@@H](O)C[C@@H](Cc1c(F)c(F)c(F)c(F)c1F)C(=O)NC1c2ccccc2C[C@@H]1O (stereo partly specified)
1260 nM | CC(C)(C)OC(=O)N[C@@H](Cc1ccccc1)[C@@H](O)CC1(Cc2ccccc2)CCCN(C2c3ccccc3C[C@@H]2O)C1=O (stereo partly specified)
5.37 nM | CC(C)(C)OC(=O)N[C@@H](Cc1ccccc1)[C@@H](O)C[C@H](C(=O)NC1c2ccccc2C[C@@H]1O)C(=O)c1ccccc1 (stereo partly specified)
0.525 nM | CC(C)(C)OC(=O)N[C@@H](Cc1ccccc1)[C@@H](O)C[C@@H](Cc1ccncc1)C(=O)NC1c2ccccc2C[C@@H]1O (stereo partly specified)
0.178 nM | CC(C)(C)OC(=O)N[C@@H](Cc1ccccc1)[C@@H](O)C[C@@H](Cc1ccccc1)C(=O)NC1c2ccccc2OC[C@@H]1O (stereo in doubt; 26)
40.7 nM | CC(C)(C)OC(=O)N[C@@H](Cc1ccccc1)[C@@H](O)C[C@@H](Cc1ccccc1)C(=O)NC1c2ccccc2OC[C@@H]1O (stereo in doubt; 27)

SMILES | IC50
O=C(N[C@@H](Cc1ccccc1)[C@@H](O)C[C@@H](Cc1ccccc1)C(=O)NC1c2ccccc2C[C@@H]1O)OC1CCOC1 (stereo partly specified) | 0.0603 nM
CC(C)(C)OC(=O)N[C@@H](Cc1ccccc1)[C@@H](O)C[C@@H](Cc1ccc(O)cc1)C(=O)NC1c2ccccc2C[C@@H]1O (stereo partly specified) | 0.158 nM
Cc1ccc(C[C@H](C[C@H](O)[C@H](Cc2ccccc2)NC(=O)OC(C)(C)C)C(=O)NC2c3ccccc3C[C@@H]2O)cc1 (stereo partly specified) | 0.288 nM
CC(C)(C)OC(=O)N[C@@H](Cc1ccccc1)[C@@H](O)C[C@@H](Cc1ccccc1)C(=O)NC1c2ccccc2C[C@@H]1O (stereo partly specified) | 0.251 nM
CC(C)(C)OC(=O)N[C@@H](Cc1ccccc1)[C@@H](O)C[C@@H](Cc1ccc(C(F)(F)F)cc1)C(=O)NC1c2ccccc2C[C@@H]1O (stereo partly specified) | 0.257 nM
CC(C)(C)OC(=O)NC(Cc1ccccc1)[C@@H](O)CC(Cc1ccc([N+](=O)[O-])cc1)C(=O)NC1c2ccccc2C[C@@H]1O (stereo partly specified) | 0.269 nM
CC(C)(C)OC(=O)NC(Cc1ccccc1)[C@@H](O)CC(Cc1ccc(N)cc1)C(=O)NC1c2ccccc2C[C@@H]1O (stereo partly specified) | 0.309 nM
CC(C)(C)OC(=O)N[C@@H](Cc1ccccc1)[C@@H](O)C[C@@H](C/C=C/c1ccccc1)C(=O)NC1c2ccccc2C[C@@H]1O (stereo partly specified) | 0.229 nM
